Experimental data reported in patent US8097266B2, “Solvent systems for pour-on formulations for combating parasites” (Merial Limited, priority 2007, dated 2012).

Tests used:
[1] = assay type: physicochemical
Protocol: In addition to examination of solutions for clarity, aged samples (2 months@ 25° C.) were examined chromatographically for degradation.
In order to elucidate possible degradation components, solutions of active components were subjected to forced degradation conditions of acid, base, and peroxide at elevated temperature.
Samples containing ivermectin and clorsulon were prepared in acetonitrile and subjected to acid (a few drops of phosphoric acid), alkaline (a few drops of 1N sodium hydroxide) and peroxide (a small amount of t-butyl peroxide or hydrogen peroxide) degradation conditions. Samples were first analyzed for signs of degradation after a few days at ambient temperature. If, after this time there were no signs of degradation the samples were further ‘stressed’ by storage at 40° C.

[2] = Preliminary stability of Table 3 formulations at 50° C.; assay type: physicochemical; details: addition of glycerol formal
Protocol: Larger batches (100 mL) of formulations were made for use in preliminary stability studies.
Eprinomectin was also included in the formulation studies at the same end product concentration as ivermectin (0.5% w/v). The formulations shown in Table 3 were monitored for stability.
In order to evaluate the stability of formulations, analytical methods (described below) were developed to assay each active ingredient and monitor any degradation.
This HPLC assay was developed as an external standardization method which involves volumetric dilution of an accurately weighed amount of standard material and sample. The chromatographic method comprises an isocratic elution and detection of analyte components using the run parameters below: […]

Row | Compound | Relative stability of the two active compounds [1] | Stabilization of eprinomectin in formulation [2]
1 | Nc1cc(C(Cl)=C(Cl)Cl)c(S(N)(=O)=O)cc1S(N)(=O)=O [clorsulon, 4-amino-6-trichloroethenyl-1,3-benzene disulfonamide] | more stable | 
2 | eprinomectin |  | stabilized by the addition of glycerol formal
